Reference: ChEMBL document CHEMBL1649267, “Molecular epidemiology and mechanisms of carbapenem resistance in Pseudomonas aeruginosa” (2009)
Values after ≈ are worked out from the molar mass of the structure shown.

Experiments:
[1] = system: Pseudomonas aeruginosa; assay type: functional; conditions: isolate Paebeta-29
[2] = system: Pseudomonas aeruginosa; assay type: functional; conditions: isolate Paebeta-21
[3] = system: Pseudomonas aeruginosa; assay type: functional; conditions: isolate Paebeta-13
[4] = system: Pseudomonas aeruginosa; assay type: functional; conditions: isolate Paebeta-03
[5] = system: Pseudomonas aeruginosa; assay type: functional; conditions: isolate Paebeta-14
[6] = system: Pseudomonas aeruginosa; assay type: functional; conditions: isolate Paebeta-27
[7] = system: Pseudomonas aeruginosa; assay type: functional; conditions: isolate Paebeta-07
[8] = system: Pseudomonas aeruginosa; assay type: functional; conditions: isolate Paebeta-09
[9] = system: Pseudomonas aeruginosa; assay: microbe, parasite or virus in culture; conditions: isolate Paebeta-12
Description: Antibacterial activity against mexB, mexY and mexD expressing Pseudomonas aeruginosa isolate Paebeta-12 harboring A residue at 105 position in PDC- 2 and polymorphic OprD gene by Etest method in presence of cloxacillin

[10] = system: Pseudomonas aeruginosa; assay type: functional; conditions: isolate Paebeta-06
[11] = system: Pseudomonas aeruginosa; assay type: functional; conditions: isolate Paebeta-04
[12] = system: Pseudomonas aeruginosa; assay type: functional; conditions: isolate Paebeta-23
[13] = system: Pseudomonas aeruginosa; assay type: functional; conditions: isolate Paebeta-10
[14] = system: Pseudomonas aeruginosa; assay type: functional; conditions: isolate Paebeta-27; remark: listed apart in the source
[15] = system: Pseudomonas aeruginosa; assay type: functional; conditions: isolate Paebeta-23; remark: listed apart in the source
[16] = system: Pseudomonas aeruginosa; assay type: functional; conditions: isolate Paebeta-19
[17] = system: Pseudomonas aeruginosa; assay type: functional; conditions: isolate Paebeta-31
[18] = system: Pseudomonas aeruginosa; assay type: functional; conditions: isolate Paebeta-25
[19] = system: Pseudomonas aeruginosa; assay type: functional; conditions: isolate Paebeta-16
[20] = system: Pseudomonas aeruginosa; assay type: functional; conditions: isolate Paebeta-20
[21] = system: Pseudomonas aeruginosa; assay type: functional; conditions: isolate Paebeta-18
[22] = system: Pseudomonas aeruginosa; assay type: functional; conditions: isolate Paebeta-26
[23] = system: Pseudomonas aeruginosa; assay type: functional; conditions: isolate Paebeta-29; remark: listed apart in the source
[24] = system: Pseudomonas aeruginosa; assay type: functional; conditions: isolate Paebeta-13; remark: listed apart in the source
[25] = system: Pseudomonas aeruginosa; assay type: functional; conditions: isolate Paebeta-06; remark: listed apart in the source
[26] = system: Pseudomonas aeruginosa; assay type: functional; conditions: isolate Paebeta-07; remark: listed apart in the source
[27] = system: Pseudomonas aeruginosa; assay type: functional; conditions: isolate Paebeta-28
[28] = system: Pseudomonas aeruginosa; assay type: functional; conditions: isolate Paebeta-05
[29] = system: Pseudomonas aeruginosa; assay type: functional; conditions: isolate Paebeta-04; remark: listed apart in the source
[30] = system: Pseudomonas aeruginosa; assay type: functional; conditions: isolate Paebeta-25; remark: listed apart in the source
[31] = system: Pseudomonas aeruginosa; assay type: functional; conditions: isolate Paebeta-31; remark: listed apart in the source
[32] = system: Pseudomonas aeruginosa; assay type: functional; conditions: isolate Paebeta-18; remark: listed apart in the source
[33] = system: Pseudomonas aeruginosa; assay type: functional; conditions: isolate Paebeta-12
[34] = system: Pseudomonas aeruginosa; assay type: functional; conditions: isolate Paebeta-11
[35] = system: Pseudomonas aeruginosa; assay type: functional; conditions: isolate Paebeta-20; remark: listed apart in the source
[36] = system: Pseudomonas aeruginosa; assay type: functional; conditions: isolate Paebeta-16; remark: listed apart in the source
[37] = system: Pseudomonas aeruginosa; assay type: functional; conditions: isolate Paebeta-30
[38] = system: Pseudomonas aeruginosa; assay type: functional; conditions: isolate Paebeta-32
[39] = system: Pseudomonas aeruginosa; assay type: functional; conditions: isolate Paebeta-17
[40] = system: Pseudomonas aeruginosa; assay type: functional; conditions: isolate Paebeta-22
[41] = system: Pseudomonas aeruginosa; assay type: functional; conditions: isolate Paebeta-08
[42] = system: Pseudomonas aeruginosa; assay type: functional; conditions: isolate Paebeta-11; remark: listed apart in the source
[43] = system: Pseudomonas aeruginosa; assay type: functional; conditions: isolate Paebeta-28; remark: listed apart in the source
[44] = system: Pseudomonas aeruginosa; assay type: functional; conditions: isolate Paebeta-32; remark: listed apart in the source
[45] = system: Pseudomonas aeruginosa; assay type: functional; conditions: isolate Paebeta-14; remark: listed apart in the source
[46] = system: Pseudomonas aeruginosa; assay type: functional; conditions: isolate Paebeta-24
[47] = system: Pseudomonas aeruginosa; assay type: functional; conditions: isolate Paebeta-17; remark: listed apart in the source
[48] = system: Pseudomonas aeruginosa; assay type: functional; conditions: isolate Paebeta-09; remark: listed apart in the source
[49] = system: Pseudomonas aeruginosa; assay type: functional; conditions: isolate Paebeta-24; remark: listed apart in the source
[50] = system: Pseudomonas aeruginosa; assay type: functional; conditions: isolate Paebeta-15
[51] = system: Pseudomonas aeruginosa; assay type: functional; conditions: isolate Paebeta-30; remark: listed apart in the source
[52] = system: Pseudomonas aeruginosa; assay type: functional; conditions: isolate Paebeta-10; remark: listed apart in the source
[53] = system: Pseudomonas aeruginosa; assay type: functional; conditions: isolate Paebeta-08; remark: listed apart in the source
[54] = system: Pseudomonas aeruginosa; assay type: functional; conditions: isolate Paebeta-03; remark: listed apart in the source
[55] = system: Pseudomonas aeruginosa; assay type: functional; conditions: isolate Paebeta-21; remark: listed apart in the source
[56] = system: Pseudomonas aeruginosa; assay type: functional; conditions: isolate Paebeta-05; remark: listed apart in the source
[57] = system: Pseudomonas aeruginosa; assay type: functional; conditions: isolate Paebeta-22; remark: listed apart in the source
[58] = system: Pseudomonas aeruginosa; assay type: functional; conditions: isolate Paebeta-19; remark: listed apart in the source
[59] = system: Pseudomonas aeruginosa; assay type: functional; conditions: isolate Paebeta-02
[60] = system: Pseudomonas aeruginosa; assay type: functional; conditions: isolate Paebeta-15; remark: listed apart in the source
[61] = system: Pseudomonas aeruginosa; assay type: functional; conditions: isolate Paebeta-26; remark: listed apart in the source
[62] = system: Pseudomonas aeruginosa; assay type: functional; conditions: isolate Paebeta-02; remark: listed apart in the source
[63] = system: Pseudomonas aeruginosa; assay type: functional; conditions: isolate Paebeta-01
[64] = system: Pseudomonas aeruginosa; assay type: functional; conditions: isolate Paebeta-01; remark: listed apart in the source

Work on `C[C@@H](O)[C@H]1C(=O)N2C(C(=O)O)=C(SCCNC=N)C[C@H]12` [IMIPENEM ANHYDROUS] yielded an MIC [1] of 16 µg/mL (≈ 53.4 µM), an MIC [2] of 2 µg/mL (≈ 6.68 µM) and an MIC [3] of 16 µg/mL (≈ 53.4 µM). For the same compound, the MIC [4] was 16 µg/mL (≈ 53.4 µM), the MIC [5] was 2 µg/mL (≈ 6.68 µM) and the MIC [6] was 16 µg/mL (≈ 53.4 µM). The MIC [7] was 2 µg/mL (≈ 6.68 µM), the MIC [8] was 2 µg/mL (≈ 6.68 µM) and the MIC [9] was 1 µg/mL (≈ 3.34 µM). It also gave an MIC [10] of 2 µg/mL (≈ 6.68 µM), an MIC [11] of 16 µg/mL (≈ 53.4 µM) and an MIC [12] of 8 µg/mL (≈ 26.7 µM). It also gave an MIC [13] of 16 µg/mL (≈ 53.4 µM), an MIC [14] of 32 µg/mL (≈ 107 µM) and an MIC [15] of 32 µg/mL (≈ 107 µM). For the same compound, the MIC [16] was 4 µg/mL (≈ 13.4 µM), the MIC [17] was 16 µg/mL (≈ 53.4 µM) and the MIC [18] was 8 µg/mL (≈ 26.7 µM). It also gave an MIC [19] of 32 µg/mL (≈ 107 µM), an MIC [20] of 16 µg/mL (≈ 53.4 µM) and an MIC [21] of 64 µg/mL (≈ 214 µM). For the same compound, the MIC [22] was 4 µg/mL (≈ 13.4 µM), the MIC [23] was 16 µg/mL (≈ 53.4 µM) and the MIC [24] was 0.5 µg/mL (≈ 1.67 µM). The MIC [25] was 16 µg/mL (≈ 53.4 µM), the MIC [26] was 16 µg/mL (≈ 53.4 µM) and the MIC [27] was 16 µg/mL (≈ 53.4 µM). It also gave an MIC [28] of 16 µg/mL (≈ 53.4 µM), an MIC [29] of 4 µg/mL (≈ 13.4 µM) and an MIC [30] of 8 µg/mL (≈ 26.7 µM). For the same compound, the MIC [31] was 16 µg/mL (≈ 53.4 µM), the MIC [32] was 16 µg/mL (≈ 53.4 µM) and the MIC [33] was 16 µg/mL (≈ 53.4 µM). The MIC [34] was 16 µg/mL (≈ 53.4 µM), the MIC [35] was 4 µg/mL (≈ 13.4 µM) and the MIC [36] was 4 µg/mL (≈ 13.4 µM). For the same compound, the MIC [37] was 8 µg/mL (≈ 26.7 µM), the MIC [38] was 64 µg/mL (≈ 214 µM) and the MIC [39] was 8 µg/mL (≈ 26.7 µM). The MIC [40] was 8 µg/mL (≈ 26.7 µM), the MIC [41] was 16 µg/mL (≈ 53.4 µM) and the MIC [42] was 2 µg/mL (≈ 6.68 µM). For the same compound, the MIC [43] was 4 µg/mL (≈ 13.4 µM), the MIC [44] was 16 µg/mL (≈ 53.4 µM) and the MIC [45] was 16 µg/mL (≈ 53.4 µM). For the same compound, the MIC [46] was 32 µg/mL (≈ 107 µM), the MIC [47] was 32 µg/mL (≈ 107 µM) and the MIC [48] was 16 µg/mL (≈ 53.4 µM). For the same compound, the MIC [49] was 8 µg/mL (≈ 26.7 µM), the MIC [50] was 16 µg/mL (≈ 53.4 µM) and the MIC [51] was 8 µg/mL (≈ 26.7 µM). The MIC [52] was 2 µg/mL (≈ 6.68 µM), the MIC [53] was 2 µg/mL (≈ 6.68 µM) and the MIC [54] was 2 µg/mL (≈ 6.68 µM). For the same compound, the MIC [55] was 16 µg/mL (≈ 53.4 µM), the MIC [56] was 16 µg/mL (≈ 53.4 µM) and the MIC [57] was 0.5 µg/mL (≈ 1.67 µM).

With `C[C@@H](O)[C@H]1C(=O)N2C(C(=O)O)=C(S[C@@H]3CN[C@H](C(=O)N(C)C)C3)[C@H](C)[C@H]12` [MEROPENEM] the MIC [1] was 32 µg/mL (≈ 83.4 µM), the MIC [2] was 16 µg/mL (≈ 41.7 µM) and the MIC [3] was 8 µg/mL (≈ 20.9 µM). The MIC [4] was 8 µg/mL (≈ 20.9 µM), the MIC [5] was 2 µg/mL (≈ 5.22 µM) and the MIC [7] was 2 µg/mL (≈ 5.22 µM). For the same compound, the MIC [8] was 4 µg/mL (≈ 10.4 µM), the MIC [9] was 2 µg/mL (≈ 5.22 µM) and the MIC [10] was 2 µg/mL (≈ 5.22 µM). For the same compound, the MIC [58] was 4 µg/mL (≈ 10.4 µM), the MIC [11] was 16 µg/mL (≈ 41.7 µM) and the MIC [12] was 8 µg/mL (≈ 20.9 µM). The MIC [13] was 8 µg/mL (≈ 20.9 µM), the MIC [15] was 16 µg/mL (≈ 41.7 µM) and the MIC [16] was 4 µg/mL (≈ 10.4 µM). It also gave an MIC [17] of 8 µg/mL (≈ 20.9 µM), an MIC [18] of 8 µg/mL (≈ 20.9 µM) and an MIC [19] of 4 µg/mL (≈ 10.4 µM). For the same compound, the MIC [20] was 8 µg/mL (≈ 20.9 µM), the MIC [22] was 4 µg/mL (≈ 10.4 µM) and the MIC [23] was 32 µg/mL (≈ 83.4 µM). It also gave an MIC [24] of 2 µg/mL (≈ 5.22 µM), an MIC [25] of 8 µg/mL (≈ 20.9 µM) and an MIC [26] of 8 µg/mL (≈ 20.9 µM). The MIC [27] was 4 µg/mL (≈ 10.4 µM), the MIC [28] was 8 µg/mL (≈ 20.9 µM) and the MIC [29] was 16 µg/mL (≈ 41.7 µM). It also gave an MIC [59] of 4 µg/mL (≈ 10.4 µM), an MIC [30] of 8 µg/mL (≈ 20.9 µM) and an MIC [31] of 8 µg/mL (≈ 20.9 µM). It also gave an MIC [60] of 4 µg/mL (≈ 10.4 µM), an MIC [32] of 32 µg/mL (≈ 83.4 µM) and an MIC [33] of 8 µg/mL (≈ 20.9 µM). The MIC [34] was 8 µg/mL (≈ 20.9 µM), the MIC [35] was 4 µg/mL (≈ 10.4 µM) and the MIC [36] was 2 µg/mL (≈ 5.22 µM). For the same compound, the MIC [37] was 8 µg/mL (≈ 20.9 µM), the MIC [38] was 16 µg/mL (≈ 41.7 µM) and the MIC [61] was 4 µg/mL (≈ 10.4 µM). The MIC [39] was 4 µg/mL (≈ 10.4 µM), the MIC [62] was 4 µg/mL (≈ 10.4 µM) and the MIC [40] was 4 µg/mL (≈ 10.4 µM). It also gave an MIC [41] of 8 µg/mL (≈ 20.9 µM), an MIC [63] of 8 µg/mL (≈ 20.9 µM) and an MIC [42] of 2 µg/mL (≈ 5.22 µM). It also gave an MIC [43] of 4 µg/mL (≈ 10.4 µM), an MIC [64] of 8 µg/mL (≈ 20.9 µM) and an MIC [44] of 8 µg/mL (≈ 20.9 µM). The MIC [45] was 4 µg/mL (≈ 10.4 µM), the MIC [46] was 32 µg/mL (≈ 83.4 µM) and the MIC [47] was 8 µg/mL (≈ 20.9 µM). It also gave an MIC [48] of 8 µg/mL (≈ 20.9 µM), an MIC [49] of 16 µg/mL (≈ 41.7 µM) and an MIC [50] of 8 µg/mL (≈ 20.9 µM). For the same compound, the MIC [51] was 8 µg/mL (≈ 20.9 µM), the MIC [52] was 4 µg/mL (≈ 10.4 µM) and the MIC [53] was 2 µg/mL (≈ 5.22 µM). The MIC [54] was 4 µg/mL (≈ 10.4 µM), the MIC [55] was 32 µg/mL (≈ 83.4 µM) and the MIC [56] was 8 µg/mL (≈ 20.9 µM). The MIC [57] was 1 µg/mL (≈ 2.61 µM).
